# Laboratory results taken from PubChem BioAssay (NCI).
#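 Step 1: Grow cells in 96-well plates. Step 2: Expose to compound for 48 hours at 5 concentrations. Step 3: Interpolate endpoints linearly; if unreached, use highest concentration. TGI is the concentration that stops growth completely.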
# Tests used:
# Experiment in all cases: DTP human tumour cell line panel, 48 h
# [1] = test system: 786-0 renal
# [2] = test system: A498 renal
# [3] = test system: A549 NSCLC
# [4] = test system: ACHN renal
# [5] = test system: BT-549 breast
# [6] = test system: CAKI-1 renal
# [7] = test system: CCRF-CEM leukemia
# [8] = test system: COLO 205 colon
# [9] = test system: DU-145 prostate
# [10] = test system: EKVX NSCLC
# [11] = test system: HCC-2998 colon
# [12] = test system: HCT-116 colon
# [13] = test system: HCT-15 colon
# [14] = test system: HL-60(TB) leukemia
# [15] = test system: HOP-62 NSCLC
# [16] = test system: HOP-92 NSCLC
# [17] = test system: HS 578T breast
# [18] = test system: HT29 colon
# [19] = test system: IGROV1 ovarian
# [20] = test system: K-562 leukemia
# [21] = test system: KM12 colon
# [22] = test system: LOX IMVI melanoma
# [23] = test system: M14 melanoma
# [24] = test system: MALME-3M melanoma
# [25] = test system: MCF7 breast
# [26] = test system: MDA-MB-231 breast
# [27] = test system: MDA-MB-435
# [28] = test system: MDA-N
# [29] = test system: MOLT-4 leukemia
# [30] = test system: NCI-H226 lung
# [31] = test system: NCI-H23 lung
# [32] = test system: NCI-H460 lung
# [33] = test system: NCI-H522 lung
# [34] = test system: NCI/ADR-RES ovarian
# [35] = test system: OVCAR-3 ovarian
# [36] = test system: OVCAR-4 ovarian
# [37] = test system: OVCAR-5 ovarian
# [38] = test system: OVCAR-8 ovarian
# [39] = test system: PC-3 prostate
# [40] = test system: RPMI-8226 leukemia
# [41] = test system: RXF 393 renal
# [42] = test system: SF-268 CNS
# [43] = test system: SF-295 CNS
# [44] = test system: SF-539 CNS
# [45] = test system: SK-MEL-2 melanoma
# [46] = test system: SK-MEL-28 melanoma
# [47] = test system: SK-MEL-5 melanoma
# [48] = test system: SK-OV-3 ovarian
# [49] = test system: SN12C renal
# [50] = test system: SNB-19 CNS
# [51] = test system: SNB-75 CNS
# [52] = test system: SW-620 colon
# [53] = test system: T-47D breast
# [54] = test system: TK-10 renal
# [55] = test system: U251 CNS
# [56] = test system: UACC-257 melanoma
# [57] = test system: UACC-62 melanoma
# [58] = test system: UO-31 renal
structure (smiles),measurement,setting,value
O=C(O)c1ccccc1Sc1ccccc1[N+](=O)[O-],TGI,[1],> 100 µM
same,TGI,[2],> 100 µM
same,TGI,[3],> 100 µM
same,TGI,[4],> 100 µM
same,TGI,[5],> 100 µM
same,TGI,[6],> 100 µM
same,TGI,[7],> 100 µM
same,TGI,[8],> 100 µM
same,TGI,[9],> 100 µM
same,TGI,[10],> 100 µM
same,TGI,[11],> 100 µM
same,TGI,[12],> 100 µM
same,TGI,[13],> 100 µM
same,TGI,[14],> 100 µM
same,TGI,[15],> 100 µM
same,TGI,[16],> 100 µM
same,TGI,[17],> 100 µM
same,TGI,[18],> 100 µM
same,TGI,[19],> 100 µM
same,TGI,[20],> 100 µM
same,TGI,[21],> 100 µM
same,TGI,[22],> 100 µM
same,TGI,[23],> 100 µM
same,TGI,[24],> 100 µM
same,TGI,[25],> 100 µM
same,TGI,[26],> 100 µM
same,TGI,[27],> 100 µM
same,TGI,[28],> 100 µM
same,TGI,[29],> 100 µM
same,TGI,[30],> 100 µM
same,TGI,[31],> 100 µM
same,TGI,[32],> 100 µM
same,TGI,[33],> 100 µM
same,TGI,[34],> 100 µM
same,TGI,[35],> 100 µM
same,TGI,[36],> 100 µM
same,TGI,[37],> 100 µM
same,TGI,[38],> 100 µM
same,TGI,[39],> 100 µM
same,TGI,[40],> 100 µM
same,TGI,[41],> 100 µM
same,TGI,[42],> 100 µM
same,TGI,[43],> 100 µM
same,TGI,[44],> 100 µM
same,TGI,[45],> 100 µM
same,TGI,[46],> 100 µM
same,TGI,[47],> 100 µM
same,TGI,[48],> 100 µM
same,TGI,[49],> 100 µM
same,TGI,[50],> 100 µM
same,TGI,[51],> 100 µM
same,TGI,[52],> 100 µM
same,TGI,[53],> 100 µM
same,TGI,[54],> 100 µM
same,TGI,[55],> 100 µM
same,TGI,[56],> 100 µM
same,TGI,[57],> 100 µM
same,TGI,[58],> 100 µM
COc1cc(/C=C2\N=C(c3ccccc3)N(c3nc4ccc(Sc5ccccc5)cc4[nH]3)C2=O)ccc1O,TGI,[1],49 µM
same,TGI,[2],77.1 µM
same,TGI,[3],> 100 µM
same,TGI,[4],86 µM
same,TGI,[5],53.7 µM
same,TGI,[6],> 100 µM
same,TGI,[7],55.3 µM
same,TGI,[8],32.7 µM
same,TGI,[9],> 100 µM
same,TGI,[10],> 100 µM
same,TGI,[11],29.3 µM
same,TGI,[12],47.3 µM
same,TGI,[13],> 100 µM
same,TGI,[14],31.2 µM
same,TGI,[15],> 100 µM
same,TGI,[16],> 100 µM
same,TGI,[17],> 100 µM
same,TGI,[18],38.7 µM
same,TGI,[19],> 100 µM
same,TGI,[20],37.3 µM
same,TGI,[21],57.9 µM
same,TGI,[22],> 100 µM
same,TGI,[23],33.6 µM
same,TGI,[24],44.1 µM
same,TGI,[25],50.7 µM
same,TGI,[26],60.4 µM
same,TGI,[27],23.2 µM
same,TGI,[28],28.5 µM
same,TGI,[29],69.4 µM
same,TGI,[31],> 100 µM
same,TGI,[32],50 µM
same,TGI,[33],48.3 µM
same,TGI,[34],61 µM
same,TGI,[35],> 100 µM
same,TGI,[36],> 100 µM
same,TGI,[37],> 100 µM
same,TGI,[38],> 100 µM
same,TGI,[39],> 100 µM
same,TGI,[40],47.8 µM
same,TGI,[41],> 100 µM
same,TGI,[42],> 100 µM
same,TGI,[43],94.7 µM
same,TGI,[45],30.6 µM
same,TGI,[46],75.3 µM
same,TGI,[47],28.1 µM
same,TGI,[48],> 100 µM
same,TGI,[49],97.5 µM
same,TGI,[50],> 100 µM
same,TGI,[51],> 100 µM
same,TGI,[52],> 100 µM
same,TGI,[53],> 100 µM
same,TGI,[54],53.5 µM
same,TGI,[55],43.7 µM
same,TGI,[56],47.1 µM
same,TGI,[57],53.3 µM
same,TGI,[58],> 100 µM
CC1=NN(C(=O)CC(=O)N(C(=O)c2ccccc2)c2ccc(Cl)cc2)C(=O)C1N=Nc1ccc([N+](=O)[O-])cc1 (stereo unspecified),TGI,[1],> 10 µM
same,TGI,[2],> 10 µM
same,TGI,[3],> 10 µM
same,TGI,[4],> 10 µM
same,TGI,[5],> 10 µM
same,TGI,[6],> 10 µM
same,TGI,[7],> 10 µM
same,TGI,[8],> 10 µM
same,TGI,[9],> 10 µM
same,TGI,[10],> 10 µM
same,TGI,[11],> 10 µM
same,TGI,[12],> 10 µM
same,TGI,[13],> 10 µM
same,TGI,[14],> 10 µM
same,TGI,[15],> 10 µM
same,TGI,[16],> 10 µM
same,TGI,[17],> 10 µM
same,TGI,[18],> 10 µM
same,TGI,[19],> 10 µM
same,TGI,[20],> 10 µM
same,TGI,[21],> 10 µM
same,TGI,[22],> 10 µM
same,TGI,[24],> 10 µM
same,TGI,[25],> 10 µM
same,TGI,[26],> 10 µM
same,TGI,[27],> 10 µM
same,TGI,[28],> 10 µM
same,TGI,[29],> 10 µM
same,TGI,[30],> 10 µM
same,TGI,[31],> 10 µM
same,TGI,[32],> 10 µM
same,TGI,[33],> 10 µM
same,TGI,[34],> 10 µM
same,TGI,[35],> 10 µM
same,TGI,[36],> 10 µM
same,TGI,[37],> 10 µM
same,TGI,[38],> 10 µM
same,TGI,[39],> 10 µM
same,TGI,[40],> 10 µM
same,TGI,[41],> 10 µM
same,TGI,[42],> 10 µM
same,TGI,[43],> 10 µM
same,TGI,[44],> 10 µM
same,TGI,[45],> 10 µM
same,TGI,[46],> 10 µM
same,TGI,[47],> 10 µM
same,TGI,[48],> 10 µM
same,TGI,[49],> 10 µM
same,TGI,[50],> 10 µM
same,TGI,[51],> 10 µM
same,TGI,[52],> 10 µM
same,TGI,[53],> 10 µM
same,TGI,[54],> 10 µM
same,TGI,[55],> 10 µM
same,TGI,[56],> 10 µM
same,TGI,[57],> 10 µM
same,TGI,[58],> 10 µM
